Measured values from the NIST ThermoML archive (doi:10.1021/acs.jced.6b00430).
Numbers after ± are expanded uncertainties.

Experiments:
[1] = xn = mol fraction of the nth substance listed; conditions: 100 kPa, Liquid, x2 = 0; for mass density: Vibrating tube method
[2] = 100 kPa, Liquid; for viscosity: Concentric cylinders viscometry; for mass density: Vibrating tube method

Compound	mass density ([1]; 328.15 K) [kg/m3]	mass density ([1]; 338.15 K) [kg/m3]	viscosity ([2]; 298.15 K) [mPa·s]	viscosity ([2]; 308.15 K) [mPa·s]	viscosity ([2]; 318.15 K) [mPa·s]	viscosity ([2]; 328.15 K) [mPa·s]	mass density ([2]; 328.15 K) [kg/m3]	viscosity ([2]; 338.15 K) [mPa·s]	mass density ([2]; 338.15 K) [kg/m3]	also measured
O [water] + O=[PH](O)O	985.69 ± 10	980.55 ± 10								viscosity ([1]; 298.15 K, Capillary tube (Ostwald / Ubbelohde) method): 0.89 ± 0.054 mPa·s; viscosity ([1]; 308.15 K, Capillary tube (Ostwald / Ubbelohde) method): 0.719 ± 0.043 mPa·s; viscosity ([1]; 318.15 K, Capillary tube (Ostwald / Ubbelohde) method): 0.596 ± 0.036 mPa·s; viscosity ([1]; 328.15 K, Capillary tube (Ostwald / Ubbelohde) method): 0.504 ± 0.03 mPa·s; viscosity ([1]; 338.15 K, Capillary tube (Ostwald / Ubbelohde) method): 0.434 ± 0.026 mPa·s
CN(C)C=O [dimethylformamide] + O=[PH](O)O	915.06 ± 10	905.35 ± 10								viscosity ([1]; 298.15 K, Concentric cylinders viscometry): 0.783 ± 0.047 mPa·s; mass density ([1]; 298.15 K): 943.92 ± 10 kg/m3; viscosity ([1]; 308.15 K, Concentric cylinders viscometry): 0.699 ± 0.042 mPa·s; mass density ([1]; 308.15 K): 934.35 ± 10 kg/m3; viscosity ([1]; 318.15 K, Concentric cylinders viscometry): 0.623 ± 0.038 mPa·s; mass density ([1]; 318.15 K): 924.72 ± 10 kg/m3; viscosity ([1]; 328.15 K, Concentric cylinders viscometry): 0.555 ± 0.034 mPa·s; viscosity ([1]; 338.15 K, Concentric cylinders viscometry): 0.495 ± 0.03 mPa·s; mass density ([1]; 348.15 K): 895.57 ± 10 kg/m3
O [water]			0.89 ± 0.054	0.719 ± 0.044	0.596 ± 0.036	0.504 ± 0.031	985.69 ± 10	0.434 ± 0.026	980.55 ± 10	
CN(C)C=O [dimethylformamide]			0.783 ± 0.047	0.699 ± 0.042	0.623 ± 0.038	0.555 ± 0.034	915.06 ± 10	0.495 ± 0.03	905.35 ± 10	mass density ([2]; 298.15 K): 943.92 ± 10 kg/m3; mass density ([2]; 308.15 K): 934.35 ± 10 kg/m3; mass density ([2]; 318.15 K): 924.72 ± 10 kg/m3; mass density ([2]; 348.15 K): 895.57 ± 10 kg/m3
